According to the OligoGym collection:
Values joined by “and” are separate entries in the source; they are usually repeats but may differ in a detail not shown here. Equal entries are not always repeated. After the bases stand the sugars from the 5' end (letter, count) and the backbone: PS all phosphorothioate, else s phosphorothioate and o phosphodiester by linkage. Methylation of C is not given here. e = 2'-O-(2-methoxyethyl) (MOE); k = constrained ethyl (cEt); d = 2'-deoxy (DNA)

Molecular target: IRF4
Details: ASO

Row | Sequence | target mRNA inhibition (SK-MEL-28, 4 µM) [%] | target mRNA inhibition (MM.1R, 1 µM) | also measured
1 | GAACAGATAGTTAAGT (sugars k3 d10 k3, PS) | 17 | – | –
2 | GAACAGGAAGCCACTA (sugars k3 d10 k3, PS) | 23 | – | –
3 | GAACAGGACCTGGTCC (sugars k3 d10 k3, PS) | 25 | – | –
4 | GAACATCTCAGATACA (sugars k3 d10 k3, PS) | 42 | – | –
5 | GAACCTGCTGGGCTGG (sugars k4 d8 k4, PS) | 13 | – | –
6 | GAACGAGGTAAATCTT (sugars k3 d10 k3, PS) | 56 | – | –
7 | GAAGAATTTTAGCATC (sugars k3 d10 k3, PS) | 56 | – | –
8 | GAAGCACTGGCATTGA (sugars k3 d10 k3, PS) | 55 | – | –
9 | GAAGCATTTTATCATC (sugars k3 d9 k3 e1, PS) | – | 1% | –
10 | GAAGCATTTTATCATC (sugars kdddddddddkekeke, PS) | – | 4% | –
11 | GAAGCATTTTATCATC (sugars kkdddddddddkekek, PS) | – | -20% | –
12 | GAAGCATTTTATCATC (sugars kkkdddddddddkeke, PS) | – | 8% | –
13 | GAAGCATTTTATCATC (sugars kkkddddddddkekek, PS) | – | -5% | –
14 | GAAGCTTAGTTATCTG (sugars k3 d10 k3, PS) | – | 45% and 39% | –
15 | GAAGTTTACACTGGAT (sugars k2 d9 e3 k2, PS) | – | 28% | –
16 | GAAGTTTACACTGGAT (sugars kkdddddddddkekek, PS) | – | 55% | target mRNA inhibition (MM.1R, 0.074 µM): 6%; target mRNA inhibition (MM.1R, 0.222 µM): 22%; target mRNA inhibition (MM.1R, 0.666 µM): 49%; target mRNA inhibition (MM.1R, 2 µM): 75%
17 | GAATGCATAACACGGT (sugars k3 d10 k3, PS) | 61 | – | –
18 | GAATGCTCTCCATCAA (sugars k3 d10 k3, PS) | 45 | – | –
19 | GAATGGCGAGTTGGCA (sugars k3 d10 k3, PS) | – | 39% and 40% | –
20 | GAATGGCGCATAGGTC (sugars k3 d10 k3, PS) | – | 26% | –
21 | GAATGGCGGATAGATC (sugars k3 d10 k3, PS) | – | -3% | –
22 | GAATTAGGTGCTTAAT (sugars k3 d10 k3, PS) | 59 | – | –
23 | GACAAATCTTCTGCCT (sugars k3 d10 k3, PS) | 26 | – | –
24 | GACAAGTGGCGCAGAC (sugars k3 d10 k3, PS) | 11 | – | –

Row | Sequence | target mRNA inhibition (SK-MEL-28, 4 µM) [%] | target mRNA inhibition (MM.1R, 1 µM) | also measured
25 | GACAATGGAGATACTT (sugars k3 d10 k3, PS) | – | 33% and 37% | –
26 | GACACTTTTAGAGAGG (sugars kkdddddddddekeke, PS) | – | 22% | –
27 | GACACTTTTAGAGAGG (sugars kkkddddddddkekek, PS) | – | -8% | –
28 | GACAGCTAAAGAACAC (sugars k3 d10 k3, PS) | 19 | – | –
29 | GACAGCTTCTTTGAAG (sugars k3 d10 k3, PS) | 36 | – | –
30 | GACAGTGACTTGCATC (sugars kddddddddddkekek, PS) | – | 8% | –
31 | GACATAAAGGACCCCG (sugars k3 d10 k3, PS) | – | 8% | –
32 | GACATATTTGCTTTGG (sugars k3 d10 k3, PS) | 58 | – | –
33 | GACCATGTTACACTTT (sugars k3 d10 k3, PS) | 50 | – | –
34 | GACGAACGCGCAAAAC (sugars k3 d10 k3, PS) | – | 15% | –
35 | GACGACAGCTGCGGAG (sugars k3 d10 k3, PS) | 45 | – | –
36 | GACTCCGGGAGCCTGG (sugars k3 d10 k3, PS) | 65 | – | –
37 | GACTGACAGCCGAAGC (sugars k3 d10 k3, PS) | – | 27% | –
38 | GACTGGAACATTGTTG (sugars k3 d10 k3, PS) | – | -41% | –
39 | GACTGGAGTGAACCCT (sugars k3 d10 k3, PS) | – | 38% | –
40 | GACTTAGTCAGAATCT (sugars k3 d10 k3, PS) | – | 10% | –
41 | GAGAAAACTCCTGAGT (sugars k3 d10 k3, PS) | 5 | – | –
42 | GAGAAACGGCCTGGAG (sugars k3 d10 k3, PS) | 44 | – | –
43 | GAGAGCCTTCACGCAC (sugars k3 d10 k3, PS) | 23 | – | –
44 | GAGATAGGAAGCACTG (sugars k3 d10 k3, PS) | 48 | – | –
45 | GAGATATTAATTACTG (sugars k3 d10 k3, PS) | 63 | – | –
46 | GAGCCAACTTATAGCA (sugars k3 d10 k3, PS) | – | 11% and 8% | –
47 | GAGCTGCTTGGCTCCT (sugars k3 d10 k3, PS) | 19 | – | –
48 | GAGCTGTGATGAGCTT (sugars k3 d10 k3, PS) | 10 | – | –

Row | Sequence | target mRNA inhibition (SK-MEL-28, 4 µM) [%] | target mRNA inhibition (MM.1R, 1 µM) | also measured
49 | GAGCTTTCTTTGCCTC (sugars k3 d10 k3, PS) | 13 | – | –
50 | GAGGACCTCGCCTGCG (sugars k3 d10 k3, PS) | -2 | – | –
51 | GAGGACTTCGGGAGAT (sugars k3 d10 k3, PS) | 23 | – | –
52 | GAGGGTCTGGAAACTC (sugars k3 d10 k3, PS) | -4 | – | –
53 | GAGGTCTTTGGGATTC (sugars k3 d10 k3, PS) | 74 | – | –
54 | GAGGTTCGCTGAATTG (sugars k3 d10 k3, PS) | 30 | – | –
55 | GAGGTTGCCGAGATAT (sugars k3 d10 k3, PS) | – | 29% | –
56 | GAGTATTTCATAGCTA (sugars k3 d10 k3, PS) | 71 | – | –
57 | GAGTGTGCAGTTCCGT (sugars k3 d10 k3, PS) | 67 | – | –
58 | GAGTTACCGCATTGCT (sugars k3 d10 k3, PS) | – | 47% and 52% | target mRNA inhibition (MM.1R, 0.0625 µM): -9%; target mRNA inhibition (MM.1R, 0.25 µM): 16%; target mRNA inhibition (MM.1R, 4 µM): 81%
59 | GATAAGAAGCACTGGC (sugars k3 d10 k3, PS) | 63 | – | –
60 | GATATAAATAGCTGTT (sugars k3 d10 k3, PS) | 37 | – | –
61 | GATATTAGAGACTGTA (sugars k3 d10 k3, PS) | 51 | – | –
62 | GATCATCAACTTCTTT (sugars k3 d10 k3, PS) | 43 | – | –
63 | GATCGAGCGGTGAAAC (sugars k3 d10 k3, PS) | 23 | – | –
64 | GATGAGAATTCCAAAC (sugars k3 d10 k3, PS) | 84 | 14% | target mRNA inhibition (MM.1R, 0.0625 µM): -1%; target mRNA inhibition (MM.1R, 0.074 µM): 0%; target mRNA inhibition (MM.1R, 0.222 µM): 2%; target mRNA inhibition (MM.1R, 0.25 µM): 2%; target mRNA inhibition (MM.1R, 0.666 µM): 0%; target mRNA inhibition (MM.1R, 2 µM): 32%; target mRNA inhibition (MM.1R, 4 µM): 36%
65 | GATGAGATATTCCTCT (sugars k3 d10 k3, PS) | – | -24% | –
66 | GATGCAGCTGGCCACA (sugars k3 d10 k3, PS) | 73 | – | –
67 | GATGGAACAGTAACTT (sugars k3 d10 k3, PS) | 51 | – | –
68 | GATGTGATAGCTGAGC (sugars k2 d9 e3 k2, PS) | – | 52% | –
69 | GATGTGATAGCTGAGC (sugars kkddddddddddkeke, PS) | – | 64% | –
70 | GATGTGATAGCTGAGC (sugars kkdddddddddkekek, PS) | – | 31% | –
71 | GATTATATACTGGTTG (sugars kddddddddddkekek, PS) | – | 48% | –
72 | GATTATATACTGGTTG (sugars kkdddddddddkdkdk, PS) | – | 35% | –

Row | Sequence | target mRNA inhibition (SK-MEL-28, 4 µM) [%] | target mRNA inhibition (MM.1R, 1 µM) | also measured
73 | GATTATATACTGGTTG (sugars kkdddddddddkekek, PS) | – | 45% | –
74 | GCAAAGCCACCCTTCC (sugars k3 d10 k3, PS) | 60 | – | –
75 | GCAACTAGCAGGGCAC (sugars k3 d10 k3, PS) | 53 | – | –
76 | GCAAGTGTCTTCCACA (sugars k3 d10 k3, PS) | 77 | – | –
77 | GCAAGTTTTCTCTGTC (sugars k3 d10 k3, PS) | 56 | – | –
78 | GCAATTAGCTCTTCTA (sugars k3 d10 k3, PS) | 21 | – | –
79 | GCACACACAAGTGGCC (sugars k3 d10 k3, PS) | 64 | – | –
80 | GCACGCAAGGCTCGGA (sugars k3 d10 k3, PS) | – | 7% | –
81 | GCACGGACGAACGCGC (sugars k3 d10 k3, PS) | 23 | – | –
82 | GCACTCTTACTCCGCT (sugars k3 d10 k3, PS) | – | 2% | –
83 | GCACTGGCATTGAGAC (sugars k3 d10 k3, PS) | 73 | – | –
84 | GCAGAAGCTGGTTGGC (sugars k3 d10 k3, PS) | 58 | – | –
85 | GCAGCTCCTACATACA (sugars k3 d10 k3, PS) | 53 | – | –
86 | GCAGTGATGTCAGGTT (sugars e1 k2 d9 k2 e2, PS) | – | 56% | target mRNA inhibition (MM.1R, 0.074 µM): 15%; target mRNA inhibition (MM.1R, 0.222 µM): 33%; target mRNA inhibition (MM.1R, 0.666 µM): 52%; target mRNA inhibition (MM.1R, 2 µM): 75%
87 | GCAGTGATGTCAGGTT (sugars k2 d9 e3 k2, PS) | – | 81% | target mRNA inhibition (MM.1R, 0.074 µM): 20%; target mRNA inhibition (MM.1R, 0.222 µM): 48%; target mRNA inhibition (MM.1R, 0.666 µM): 73%; target mRNA inhibition (MM.1R, 2 µM): 91%
88 | GCAGTGATGTCAGGTT (sugars kddddddddddkekek, PS) | – | 36% | –
89 | GCAGTGATGTCAGGTT (sugars kdddddddddkekeke, PS) | – | 33% | –
90 | GCAGTGATGTCAGGTT (sugars kkddddddddddkeke, PS) | – | 67% | target mRNA inhibition (MM.1R, 0.074 µM): 25%; target mRNA inhibition (MM.1R, 0.222 µM): 45%; target mRNA inhibition (MM.1R, 0.666 µM): 63%; target mRNA inhibition (MM.1R, 2 µM): 85%
91 | GCAGTGATGTCAGGTT (sugars kkdddddddddekeke, PS) | – | 80% | target mRNA inhibition (MM.1R, 0.074 µM): 22%; target mRNA inhibition (MM.1R, 0.222 µM): 49%; target mRNA inhibition (MM.1R, 0.666 µM): 73%; target mRNA inhibition (MM.1R, 2 µM): 92%
92 | GCATAGTGATGAGATA (sugars k3 d10 k3, PS) | 59 | – | –
93 | GCATCTCTAAAGAATG (sugars k3 d10 k3, PS) | 61 | – | –
94 | GCATGTTCCTCAAAGC (sugars k3 d10 k3, PS) | 76 | – | –
95 | GCATTTTATCATCCGA (sugars k3 d9 k3 e1, PS) | – | 62% | target mRNA inhibition (MM.1R, 0.074 µM): 16%; target mRNA inhibition (MM.1R, 0.222 µM): 32%; target mRNA inhibition (MM.1R, 0.666 µM): 51%; target mRNA inhibition (MM.1R, 2 µM): 77%
96 | GCATTTTATCATCCGA (sugars kdddddddddkekeke, PS) | – | 23% | –
